Measurements from article PMC11576293, “New series of 4,6-diaryl pyrimidines: facile synthesis and antiproliferative activity as dual EGFR/VEGFR-2 inhibitors” (Frontiers in Chemistry, 2024).
Values joined by “and” are separate entries in the source; they are usually repeats but may differ in a detail not shown here. Equal values may be shown once.

System: not listed separately
Experiment: Experimental lipophilicity by RP-TLC
Format: physicochemical
Conditions: MeOH/water mobile phase
Excerpt: The RP-TLC method was used to measure the lipophilicity parameters (RMo, b, and Co) described in the experimental section. The mobile phase consisted of different proportions of water and organic modifier (MeOH). RF and RM values were obtained for each ratio of organic modifier/water system (Supplementary Table S3), and a linear regression analysis was achieved to obtain the lipophilicity chromatographic descriptors (RMo, b, and Co, see Table 6). Relative lipophilicity (RMo) describes the partitioning of the solute between pure water and nonpolar stationary phase. In contrast, the second lipophilicity parameter (Co) represents the concentration of organic modifier in the mobile phase in which the solute is equally distributed between two phases (i.e., RM = 0, and Rf = 0.5). Also, Co is known to be widely used in QSAR analysis as it embraces both the specific hydrophobic surface area of the solute and RMo. […] Finally, the slope of the regression line (b) was used as a descriptor of the specific hydrophobic surface area of the compound. In a series of structurally related compounds, b is linearly correlated with RMo, resulting in a linear relationship that is the basic feature of the chromatographic determination of lipophilicity. […] Moreover, substituents affected tested compounds’ measured lipophilicity parameter (RMo) values. Higher RMo values were found with lipophilic derivatives containing the benzyl group (14, 22, and 28), while lower RMo values were found with derivatives containing alkyl or allyl groups (19, 26, and 27). An interesting contradiction was found with experimental lipophilicity value of 28 and its congener 14, where compound 28 was found more lipophilic than its congener 14 even though it contains two methoxy groups and according to ChemDraw® and MolSoft® programs, derivative 14 should be more lipophilic while the MOE® program expects values matching our findings. […] Also, S-allyl derivatives were nearly equipotent to S-alkyl congeners as antiproliferative agents but quite different in terms of lipophilicity.

| Compound | Experimental lipophilicity RMo | Experimental lipophilicity b (slope) |
| --- | --- | --- |
| COc1ccc(-c2cc(-c3ccc(Cl)cc3)nc(SCc3ccccc3)n2)cc1 [Compound 14, 2-(Benzylthio)-4-(4-chlorophenyl)-6-(4-methoxyphenyl)pyrimidine] | 7.024 ± 0.05913 | -0.074 ± 0.00066 |
| COc1ccc(-c2cc(-c3cccc(OC)c3)nc(SC(C)C)n2)cc1 [Compound 19, 2-(Isopropylthio)-6-(3-methoxyphenyl)-4-(4-methoxyphenyl)pyrimidine] | 7.02 | – |
| COc1ccc(-c2cc(-c3ccc(Cl)cc3)nc(SC(C)C)n2)cc1OC [Compound 26, 4-(4-Chlorophenyl)-2-(isopropylthio)-6-(3,4-dimethoxyphenyl)pyrimidine] | 6.45 | – |
| C=CCSc1nc(-c2ccc(Cl)cc2)cc(-c2ccc(OC)c(OC)c2)n1 [Compound 27, 2-(Allylthio)-4-(4-chlorophenyl)-6-(3,4-dimethoxyphenyl)pyrimidine] | 5.79 | – |
| COc1ccc(-c2cc(-c3ccc(Cl)cc3)nc(SCc3ccccc3)n2)cc1OC [Compound 28, 2-(Benzylthio)-4-(4-chlorophenyl)-6-(3,4-dimethoxyphenyl)pyrimidine] | 5.32 | – |

Same assay, conditions: concentration of MeOH at RM = 0, in % (unit assumed)

| Compound | Experimental lipophilicity Co |
| --- | --- |
| COc1ccc(-c2cc(-c3ccc(Cl)cc3)nc(SCc3ccccc3)n2)cc1 [Compound 14, 2-(Benzylthio)-4-(4-chlorophenyl)-6-(4-methoxyphenyl)pyrimidine] | 91.3417 |
| COc1ccc(-c2cc(-c3cccc(OC)c3)nc(SC(C)C)n2)cc1 [Compound 19, 2-(Isopropylthio)-6-(3-methoxyphenyl)-4-(4-methoxyphenyl)pyrimidine] | 87.6579 and 91.32 |
| COc1ccc(-c2cc(-c3ccc(Cl)cc3)nc(SC(C)C)n2)cc1OC [Compound 26, 4-(4-Chlorophenyl)-2-(isopropylthio)-6-(3,4-dimethoxyphenyl)pyrimidine] | 86.518 and 90.64 |
| C=CCSc1nc(-c2ccc(Cl)cc2)cc(-c2ccc(OC)c(OC)c2)n1 [Compound 27, 2-(Allylthio)-4-(4-chlorophenyl)-6-(3,4-dimethoxyphenyl)pyrimidine] | 87.9561 and 86.52 |
| COc1ccc(-c2cc(-c3ccc(Cl)cc3)nc(SCc3ccccc3)n2)cc1OC [Compound 28, 2-(Benzylthio)-4-(4-chlorophenyl)-6-(3,4-dimethoxyphenyl)pyrimidine] | 91.4199 and 87.18 |

System: MOLT-4
Experiment: NCI-60 single-dose screen
Format: cell-based
Conditions: Homo sapiens, single dose 10 µM, '-' = no inhibition, read-out: % Growth Inhibition
Summary of the method: (§1)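 Values come from NCI-60 one-dose testing: compound at 10 μM against sixty human cancer cell lines of nine tissue types, performed at NCI DTP.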

| Compound | inhibition at 10 µM [%] |
| --- | --- |
| COc1ccc(-c2cc(-c3ccc(Cl)cc3)nc(SC)n2)cc1 [Compound 9, 4-(4-Chlorophenyl)-6-(4-methoxyphenyl)-2-(methylthio)pyrimidine] | 11.7 |
| CCSc1nc(-c2ccc(Cl)cc2)cc(-c2ccc(OC)cc2)n1 [Compound 10, 4-(4-Chlorophenyl)-2-(ethylthio)-6-(4-methoxyphenyl)pyrimidine] | 2.95 |
| CCCSc1nc(-c2ccc(Cl)cc2)cc(-c2ccc(OC)cc2)n1 [Compound 11, 4-(4-Chlorophenyl)-6-(4-methoxyphenyl)-2-(propylthio)pyrimidine] | 2.06 |
| COc1ccc(-c2cc(-c3ccc(Cl)cc3)nc(SC(C)C)n2)cc1 [Compound 12, 4-(4-Chlorophenyl)-2-(isopropylthio)-6-(4-methoxyphenyl)pyrimidine] | 29.9 |
| COc1ccc(-c2cc(-c3ccc(Cl)cc3)nc(SCc3ccccc3)n2)cc1 [Compound 14, 2-(Benzylthio)-4-(4-chlorophenyl)-6-(4-methoxyphenyl)pyrimidine] | 4.54 |
| COc1ccc(-c2cc(-c3cccc(OC)c3)nc(SC(C)C)n2)cc1 [Compound 19, 2-(Isopropylthio)-6-(3-methoxyphenyl)-4-(4-methoxyphenyl)pyrimidine] | 23.8 |
| COc1ccc(-c2cc(-c3ccc(Cl)cc3)nc(SC(C)C)n2)cc1OC [Compound 26, 4-(4-Chlorophenyl)-2-(isopropylthio)-6-(3,4-dimethoxyphenyl)pyrimidine] | 5.51 |
| C=CCSc1nc(-c2ccc(Cl)cc2)cc(-c2ccc(OC)c(OC)c2)n1 [Compound 27, 2-(Allylthio)-4-(4-chlorophenyl)-6-(3,4-dimethoxyphenyl)pyrimidine] | 28.5 |
| COc1ccc(-c2cc(-c3ccc(Cl)cc3)nc(SCc3ccccc3)n2)cc1OC [Compound 28, 2-(Benzylthio)-4-(4-chlorophenyl)-6-(3,4-dimethoxyphenyl)pyrimidine] | 32.8 |

System: SF-268
Experiment: NCI-60 single-dose screen
Format: cell-based
Conditions: Homo sapiens, single dose 10 µM, '-' = no inhibition, read-out: % Growth Inhibition
Summary of the method: as §1

| Compound | inhibition at 10 µM [%] |
| --- | --- |
| COc1ccc(-c2cc(-c3ccc(Cl)cc3)nc(SC)n2)cc1 [Compound 9, 4-(4-Chlorophenyl)-6-(4-methoxyphenyl)-2-(methylthio)pyrimidine] | 4.44 |
| CCSc1nc(-c2ccc(Cl)cc2)cc(-c2ccc(OC)cc2)n1 [Compound 10, 4-(4-Chlorophenyl)-2-(ethylthio)-6-(4-methoxyphenyl)pyrimidine] | < 0 |
| CCCSc1nc(-c2ccc(Cl)cc2)cc(-c2ccc(OC)cc2)n1 [Compound 11, 4-(4-Chlorophenyl)-6-(4-methoxyphenyl)-2-(propylthio)pyrimidine] | < 0 |
| COc1ccc(-c2cc(-c3ccc(Cl)cc3)nc(SC(C)C)n2)cc1 [Compound 12, 4-(4-Chlorophenyl)-2-(isopropylthio)-6-(4-methoxyphenyl)pyrimidine] | < 0 |
| COc1ccc(-c2cc(-c3ccc(Cl)cc3)nc(SCc3ccccc3)n2)cc1 [Compound 14, 2-(Benzylthio)-4-(4-chlorophenyl)-6-(4-methoxyphenyl)pyrimidine] | < 0 |
| COc1ccc(-c2cc(-c3cccc(OC)c3)nc(SC(C)C)n2)cc1 [Compound 19, 2-(Isopropylthio)-6-(3-methoxyphenyl)-4-(4-methoxyphenyl)pyrimidine] | 9.81 |
| COc1ccc(-c2cc(-c3ccc(Cl)cc3)nc(SC(C)C)n2)cc1OC [Compound 26, 4-(4-Chlorophenyl)-2-(isopropylthio)-6-(3,4-dimethoxyphenyl)pyrimidine] | < 0 |
| C=CCSc1nc(-c2ccc(Cl)cc2)cc(-c2ccc(OC)c(OC)c2)n1 [Compound 27, 2-(Allylthio)-4-(4-chlorophenyl)-6-(3,4-dimethoxyphenyl)pyrimidine] | < 0 |
| COc1ccc(-c2cc(-c3ccc(Cl)cc3)nc(SCc3ccccc3)n2)cc1OC [Compound 28, 2-(Benzylthio)-4-(4-chlorophenyl)-6-(3,4-dimethoxyphenyl)pyrimidine] | 10.8 |

System: KM12
Experiment: NCI-60 single-dose screen
Format: cell-based
Conditions: Homo sapiens, single dose 10 µM, '-' = no inhibition, read-out: % Growth Inhibition
Summary of the method: as §1

| Compound | inhibition at 10 µM [%] |
| --- | --- |
| COc1ccc(-c2cc(-c3ccc(Cl)cc3)nc(SC)n2)cc1 [Compound 9, 4-(4-Chlorophenyl)-6-(4-methoxyphenyl)-2-(methylthio)pyrimidine] | 5.71 |
| CCSc1nc(-c2ccc(Cl)cc2)cc(-c2ccc(OC)cc2)n1 [Compound 10, 4-(4-Chlorophenyl)-2-(ethylthio)-6-(4-methoxyphenyl)pyrimidine] | 1.5 |
| CCCSc1nc(-c2ccc(Cl)cc2)cc(-c2ccc(OC)cc2)n1 [Compound 11, 4-(4-Chlorophenyl)-6-(4-methoxyphenyl)-2-(propylthio)pyrimidine] | 1.24 |
| COc1ccc(-c2cc(-c3ccc(Cl)cc3)nc(SC(C)C)n2)cc1 [Compound 12, 4-(4-Chlorophenyl)-2-(isopropylthio)-6-(4-methoxyphenyl)pyrimidine] | 9.45 |
| COc1ccc(-c2cc(-c3ccc(Cl)cc3)nc(SCc3ccccc3)n2)cc1 [Compound 14, 2-(Benzylthio)-4-(4-chlorophenyl)-6-(4-methoxyphenyl)pyrimidine] | < 0 |
| COc1ccc(-c2cc(-c3cccc(OC)c3)nc(SC(C)C)n2)cc1 [Compound 19, 2-(Isopropylthio)-6-(3-methoxyphenyl)-4-(4-methoxyphenyl)pyrimidine] | 5.72 |
| COc1ccc(-c2cc(-c3ccc(Cl)cc3)nc(SC(C)C)n2)cc1OC [Compound 26, 4-(4-Chlorophenyl)-2-(isopropylthio)-6-(3,4-dimethoxyphenyl)pyrimidine] | 1.72 |
| C=CCSc1nc(-c2ccc(Cl)cc2)cc(-c2ccc(OC)c(OC)c2)n1 [Compound 27, 2-(Allylthio)-4-(4-chlorophenyl)-6-(3,4-dimethoxyphenyl)pyrimidine] | 3.43 |
| COc1ccc(-c2cc(-c3ccc(Cl)cc3)nc(SCc3ccccc3)n2)cc1OC [Compound 28, 2-(Benzylthio)-4-(4-chlorophenyl)-6-(3,4-dimethoxyphenyl)pyrimidine] | 23.2 |

Target: VEGFR-2 (Homo sapiens, UniProt P35968)
Sequence (P35968 20-1356): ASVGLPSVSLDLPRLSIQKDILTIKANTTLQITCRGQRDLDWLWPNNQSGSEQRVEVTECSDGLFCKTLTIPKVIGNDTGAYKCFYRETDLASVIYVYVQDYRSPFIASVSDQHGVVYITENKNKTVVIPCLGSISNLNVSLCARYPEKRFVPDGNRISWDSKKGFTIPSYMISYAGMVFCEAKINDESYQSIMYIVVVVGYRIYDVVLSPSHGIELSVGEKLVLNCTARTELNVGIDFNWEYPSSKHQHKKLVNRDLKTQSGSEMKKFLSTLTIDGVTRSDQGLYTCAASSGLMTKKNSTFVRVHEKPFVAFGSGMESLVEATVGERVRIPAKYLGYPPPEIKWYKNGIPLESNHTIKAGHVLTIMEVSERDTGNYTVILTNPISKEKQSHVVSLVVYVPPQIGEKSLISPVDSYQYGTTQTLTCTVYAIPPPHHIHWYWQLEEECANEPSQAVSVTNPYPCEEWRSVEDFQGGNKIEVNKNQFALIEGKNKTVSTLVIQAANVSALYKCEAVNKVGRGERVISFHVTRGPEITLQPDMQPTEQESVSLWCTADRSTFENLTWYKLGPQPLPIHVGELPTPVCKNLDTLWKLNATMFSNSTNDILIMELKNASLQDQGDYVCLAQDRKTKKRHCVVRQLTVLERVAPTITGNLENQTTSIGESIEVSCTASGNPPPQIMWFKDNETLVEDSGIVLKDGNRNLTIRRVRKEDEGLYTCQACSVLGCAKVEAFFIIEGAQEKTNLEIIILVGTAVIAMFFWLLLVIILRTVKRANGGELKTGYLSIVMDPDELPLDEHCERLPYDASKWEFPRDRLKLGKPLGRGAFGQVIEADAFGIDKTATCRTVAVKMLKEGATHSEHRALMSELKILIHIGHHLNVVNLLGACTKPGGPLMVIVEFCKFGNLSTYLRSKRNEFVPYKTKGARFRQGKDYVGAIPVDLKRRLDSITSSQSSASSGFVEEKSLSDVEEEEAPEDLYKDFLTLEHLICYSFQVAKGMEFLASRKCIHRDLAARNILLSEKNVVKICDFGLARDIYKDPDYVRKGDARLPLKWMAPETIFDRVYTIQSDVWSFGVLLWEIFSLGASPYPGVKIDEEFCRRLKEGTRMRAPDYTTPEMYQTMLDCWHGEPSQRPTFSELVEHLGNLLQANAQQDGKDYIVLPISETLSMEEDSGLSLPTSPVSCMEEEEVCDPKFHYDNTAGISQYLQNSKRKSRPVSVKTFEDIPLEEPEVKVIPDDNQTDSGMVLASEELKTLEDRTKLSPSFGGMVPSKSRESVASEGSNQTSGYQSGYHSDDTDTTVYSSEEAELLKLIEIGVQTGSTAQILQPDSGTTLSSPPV
Experiment: VEGFR-2 inhibitory assay
Conditions: not given

| Compound | IC50 [nM] |
| --- | --- |
| COc1ccc(-c2cc(-c3ccc(Cl)cc3)nc(SCc3ccccc3)n2)cc1 [Compound 14, 2-(Benzylthio)-4-(4-chlorophenyl)-6-(4-methoxyphenyl)pyrimidine] | 2.2 ± 0.02 |
| COc1ccc(-c2cc(-c3cccc(OC)c3)nc(SC(C)C)n2)cc1 [Compound 19, 2-(Isopropylthio)-6-(3-methoxyphenyl)-4-(4-methoxyphenyl)pyrimidine] | 2.7 ± 0.02 |

System: four cancer cell lines (A-549, MCF-7, Panc-1, HT-29)
Experiment: Antiproliferative assay, average over four cancer cell lines
Format: cell-based
Conditions: Homo sapiens; average of the four cancer cell lines; read-out: Average IC50 (GI50)
Excerpt: Table 2 presents the four cancer cell lines’ median inhibitory concentration (IC50) and GI50 (average IC50) values.
The IC50 values were derived from dose-response tests. The reported data are derived from at least two independent studies, each comprising three replicates per concentration. See Supplementary Material A1 for more details.

| Compound | IC50 [nM] |
| --- | --- |
| COc1ccc(-c2cc(-c3ccc(Cl)cc3)nc(SC)n2)cc1 [Compound 9, 4-(4-Chlorophenyl)-6-(4-methoxyphenyl)-2-(methylthio)pyrimidine] | 62 |
| CCSc1nc(-c2ccc(Cl)cc2)cc(-c2ccc(OC)cc2)n1 [Compound 10, 4-(4-Chlorophenyl)-2-(ethylthio)-6-(4-methoxyphenyl)pyrimidine] | 76 |
| CCCSc1nc(-c2ccc(Cl)cc2)cc(-c2ccc(OC)cc2)n1 [Compound 11, 4-(4-Chlorophenyl)-6-(4-methoxyphenyl)-2-(propylthio)pyrimidine] | 54 |
| COc1ccc(-c2cc(-c3ccc(Cl)cc3)nc(SC(C)C)n2)cc1 [Compound 12, 4-(4-Chlorophenyl)-2-(isopropylthio)-6-(4-methoxyphenyl)pyrimidine] | 36 |
| COc1ccc(-c2cc(-c3ccc(Cl)cc3)nc(SCc3ccccc3)n2)cc1 [Compound 14, 2-(Benzylthio)-4-(4-chlorophenyl)-6-(4-methoxyphenyl)pyrimidine] | 29 |
| COc1ccc(-c2cc(-c3cccc(OC)c3)nc(SC(C)C)n2)cc1 [Compound 19, 2-(Isopropylthio)-6-(3-methoxyphenyl)-4-(4-methoxyphenyl)pyrimidine] | 30 |
| COc1ccc(-c2cc(-c3ccc(Cl)cc3)nc(SC(C)C)n2)cc1OC [Compound 26, 4-(4-Chlorophenyl)-2-(isopropylthio)-6-(3,4-dimethoxyphenyl)pyrimidine] | 41 |
| C=CCSc1nc(-c2ccc(Cl)cc2)cc(-c2ccc(OC)c(OC)c2)n1 [Compound 27, 2-(Allylthio)-4-(4-chlorophenyl)-6-(3,4-dimethoxyphenyl)pyrimidine] | 59 |
| COc1ccc(-c2cc(-c3ccc(Cl)cc3)nc(SCc3ccccc3)n2)cc1OC [Compound 28, 2-(Benzylthio)-4-(4-chlorophenyl)-6-(3,4-dimethoxyphenyl)pyrimidine] | 41 |

Target: T1, EGFR (Homo sapiens, UniProt P00533)
T1 construct: amino acids 645–1186; His6 (N); made in house; host or cells: Sf-9 insect cells (baculovirus; pBlueBacHis2B / pFASTBacHTc)
T1 sequence (P00533 669-1210): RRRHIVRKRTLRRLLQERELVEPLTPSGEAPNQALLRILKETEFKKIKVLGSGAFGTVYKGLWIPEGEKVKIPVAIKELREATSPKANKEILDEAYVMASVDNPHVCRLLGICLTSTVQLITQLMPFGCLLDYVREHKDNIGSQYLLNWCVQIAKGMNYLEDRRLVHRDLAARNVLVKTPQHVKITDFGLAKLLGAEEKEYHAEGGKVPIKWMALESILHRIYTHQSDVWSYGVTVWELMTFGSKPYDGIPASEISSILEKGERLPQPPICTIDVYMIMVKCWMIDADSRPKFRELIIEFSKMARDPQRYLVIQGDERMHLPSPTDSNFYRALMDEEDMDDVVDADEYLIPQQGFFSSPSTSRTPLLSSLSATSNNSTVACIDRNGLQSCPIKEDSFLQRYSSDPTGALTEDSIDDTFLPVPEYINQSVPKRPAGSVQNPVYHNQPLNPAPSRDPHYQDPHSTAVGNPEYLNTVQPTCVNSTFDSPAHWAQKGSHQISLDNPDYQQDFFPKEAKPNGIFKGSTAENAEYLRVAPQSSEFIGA
Experiment: EGFR-TK inhibitory assay
Format: biochemical
Conditions: read-out: EGFR inhibition IC50 ± SEM

| Compound | IC50 [nM] |
| --- | --- |
| COc1ccc(-c2cc(-c3ccc(Cl)cc3)nc(SCc3ccccc3)n2)cc1 [Compound 14, 2-(Benzylthio)-4-(4-chlorophenyl)-6-(4-methoxyphenyl)pyrimidine] | 90 ± 7 |
| COc1ccc(-c2cc(-c3cccc(OC)c3)nc(SC(C)C)n2)cc1 [Compound 19, 2-(Isopropylthio)-6-(3-methoxyphenyl)-4-(4-methoxyphenyl)pyrimidine] | 83 ± 6 |
